# Assay results reported in US11857565B2, “Hydrophobic Auristatin F compounds and conjugates thereof” (priority 2018, dated 2024).
# Starred links: 1 amine or outer side, 2 acyl side, 3 side chain; linkers in the order of their positions; H or OH if unused. Non-standard residues stand in square brackets, D forms with d. Residues, ends and D or L forms follow the SMILES beside them. *: point of attachment. X4 = CC(C)[C@@H](C(=O)[*:2])N(CCCCN(C)C(=O)OC(C)(C)C)[*:1]; Dolaproine = CO[C@@H]([C@@H]1CCCN1)[C@@H](C)C(=O)O; X3 = CC(C)[C@@H](C(=O)[*:2])N(C)CCCCN(C)[*:1]; X5 = CC(C)[C@@H](C(=O)[*:2])N(C)CCCN(C)[*:1]; Dil = CC[C@H](C)[C@H](NC)[C@@H](CC(=O)O)OC; X6 = CC(C)[C@@H](C(=O)[*:2])N(C)CCCN[*:1]; X1 = C[C@@H](N*)[C@@H](O)c1ccccc1; NMeV = CN[C@H](C(=O)O)C(C)C; Boc = CC(C)(C)OC(=O)*
# What was measured:
# Format in all cases: cell-based
# [1] = tested on: SK-MEL-28 Melanoma; experiment: In vitro cytotoxicity, free drugs on SK-MEL-28; settings: free drug
# Experimental: (§1) The cytotoxicity of an auristatin Ligand Drug Conjugate or free auristatin drug was measured by a cell proliferation assay employing the protocol described in Promega Corp. Technical Bulletin TB288; Mendoza et al., 2002, Cancer Res. 62:5485-5488), the methods of which is specifically incorporated by reference herein. Briefly, an aliquot of 100 μl of cell culture containing about […] (e.g., HL-60, SK-MEL-5, etc.) in medium is deposited in each well of a 96-well, opaque-walled plate. Control wells were prepared containing medium and without cells. Free Drug or conjugate is added to the experimental wells and incubated for 96 h and are then equilibrated to room temperature for approximately 30 minutes whereupon a volume of CellTiter-Glo™ reagent equal to the volume of cell culture medium present in each well is added. The contents are mixed for 2 minutes on an orbital shaker to induce cell lysis and the plate is incubated at room temperature for 10 minutes to stabilize the luminescence signal for recordation.
# [2] = tested on: SK-MEL-5 Melanoma; experiment: In vitro cytotoxicity, free drugs on SK-MEL-5; settings: free drug
# Experimental: as §1
# [3] = tested on: A2058 Melanoma; experiment: In vitro cytotoxicity, free drugs on A2058; settings: free drug
# Experimental: as §1
# [4] = tested on: A375 Melanoma; experiment: In vitro cytotoxicity, free drugs on A375; settings: free drug
# Experimental: as §1
# [5] = tested on: IGR-37 Melanoma; experiment: In vitro cytotoxicity, free drugs on IGR-37; settings: free drug
# Experimental: as §1
# [6] = In vitro cytotoxicity, free drugs on Colo-853; settings: free drug; read-out: In vitro IC50 Colo-853 Colon Cancer
# Experimental: as §1
# [7] = tested on: MDR− HL60 acute myeloid leukemia cell line; experiment: In vitro cytotoxicity (CellTiter-Glo cell proliferation assay), free drugs on HL60; settings: free drug, 96 h incubation; read-out: In vitro IC50 HL60 (MDR−)
# Experimental: as §1
# [8] = tested on: MDR+ HL60/RV acute myeloid leukemia cell line; experiment: In vitro cytotoxicity (CellTiter-Glo cell proliferation assay), free drugs on HL60/RV; settings: free drug, 96 h incubation; read-out: In vitro IC50 HL60/RV (MDR+)
# Experimental: as §1
# [9] = tested on: 786-O Renal Cell Carcinoma; experiment: In vitro cytotoxicity, 4-load auristatin ADCs on 786-O; settings: 4-load ADC
# Experimental: as §1
# [10] = tested on: A498 Renal Cell Carcinoma; experiment: In vitro cytotoxicity, 4-load auristatin ADCs on A498; settings: 4-load ADC
# Experimental: as §1
# [11] = tested on: L428 Hodgkin Lymphoma; experiment: In vitro cytotoxicity, 4-load auristatin ADCs on L428; settings: 4-load ADC
# Experimental: as §1
Molecule,"IC50 ([1]; Homo sapiens, SK-MEL-28) [nM]","IC50 ([2]; Homo sapiens, SK-MEL-5) [nM]","IC50 ([3]; Homo sapiens, A2058) [nM]","IC50 ([4]; Homo sapiens, A-375) [nM]","IC50 ([5]; Homo sapiens, IGR-37) [nM]",IC50 [6] [nM],In vitro IC50 786-O Renal Cell Carcinoma [9] [ng/mL],In vitro IC50 A498 Renal Cell Carcinoma [10] [ng/mL],In vitro IC50 L428 Hodgkin Lymphoma [11] [ng/mL],other results
"CC[C@H](C)[C@@H]([C@@H](CC(=O)N1CCC[C@H]1[C@H](OC)[C@@H](C)C(=O)N[C@@H](Cc1ccccc1)C(=O)O)OC)N(C)C(=O)[C@@H](NC(=O)[C@H](C(C)C)N(C)CCCNC(=O)OC(C)(C)C)C(C)C [Compound 18, N-Boc-propyl-AF] (Boc-[X6]V[Dil][Dolaproine]F-OH)",21,4,9.1,4.9,13.7,17.5,,,,
"CC[C@H](C)[C@@H]([C@@H](CC(=O)N1CCC[C@H]1[C@H](OC)[C@@H](C)C(=O)N[C@@H](Cc1ccccc1)C(=O)O)OC)N(C)C(=O)[C@@H](NC(=O)[C@@H](NCCCCN(C)C(=O)OC(C)(C)C)C(C)C)C(C)C [Compound 17, (Boc-N-methyl)-butyl-AF] (H-[X4]V[Dil][Dolaproine]F-OH)",77.3,26.2,20.3,14.8,62.7,66.2,,,,
"CC[C@H](C)[C@@H]([C@@H](CC(=O)N1CCC[C@H]1[C@H](OC)[C@@H](C)C(=O)N[C@H](C)[C@@H](O)c1ccccc1)OC)N(C)C(=O)[C@@H](NC(=O)[C@@H](NC)C(C)C)C(C)C [Compound 3, Monomethyl auristatin E, reference compound] (H-[NMeV]V[Dil][Dolaproine]-X1)",,,,,,0.1,,,,IC50 [7]: 1 nM; IC50 [8]: 180 nM; IC50 [1]: 0.1 nM; IC50 [2]: 0.1 nM; IC50 [3]: 0.1 nM; IC50 [4]: 0.1 nM; IC50 [5]: 0.2 nM
"CC[C@H](C)[C@@H]([C@@H](CC(=O)N1CCC[C@H]1[C@H](OC)[C@@H](C)C(=O)N[C@@H](Cc1ccccc1)C(=O)O)OC)N(C)C(=O)[C@@H](NC(=O)[C@@H](NC)C(C)C)C(C)C [Compound 2, Monomethyl auristatin F, reference compound] (H-[NMeV]V[Dil][Dolaproine]F-OH)",,,,,,90.2,,,,IC50 [1]: 138 nM; IC50 [2]: 35.6 nM; IC50 [3]: 84.2 nM; IC50 [4]: 48.9 nM; IC50 [5]: 72.5 nM
"CC[C@H](C)[C@@H]([C@@H](CC(=O)N1CCC[C@H]1[C@H](OC)[C@@H](C)C(=O)N[C@@H](Cc1ccccc1)C(=O)O)OC)N(C)C(=O)[C@@H](NC(=O)[C@H](C(C)C)N(C)CCCN(C)C(=O)OC(C)(C)C)C(C)C [Compound 25, (Boc-N-methyl)-propyl-AF] (Boc-[X5]V[Dil][Dolaproine]F-OH)",17.2,6.1,4,5.9,16.1,15.1,,,,
"CC[C@H](C)[C@@H]([C@@H](CC(=O)N1CCC[C@H]1[C@H](OC)[C@@H](C)C(=O)N[C@@H](Cc1ccccc1)C(=O)O)OC)N(C)C(=O)[C@@H](NC(=O)[C@H](C(C)C)N(C)CCCCN(C)C(=O)OC(C)(C)C)C(C)C [Compound 16, (Boc-N-methyl)-butyl-AF] (Boc-[X3]V[Dil][Dolaproine]F-OH)",4.4,0.4,0.9,0.7,2.5,6.2,,,,
"h1F6-37(4): 4-load auristatin ADC targeting CD70: h1F6 antibody conjugated to drug linker compound 37 (conjugate, chains of the INN, looked up, auristatin drug linker compound 37, 4-load) VH: QVQLVQSGAEVKKPGASVKVSCKASGYTFTNYGMNWVRQAPGQGLKWMGWINTYTGEPTYADAFKGRVTMTRDTSISTAYMELSRLRSDDTAVYYCARDYGDYGMDYWGQGTTVTVSS VL: DIVMTQSPDSLAVSLGERATINCRASKSVSTSGYSFMHWYQQKPGQPPKLLIYLASNLESGVPDRFSGSGSGTDFTLTISSLQAEDVAVYYCQHSREVPWTFGQGTKVEIK",,,,,,,23,39,2,
"h1F6-36(4): 4-load auristatin ADC targeting CD70: h1F6 antibody conjugated to drug linker compound 36 (conjugate, chains of the INN, looked up, auristatin drug linker compound 36, 4-load) VH: QVQLVQSGAEVKKPGASVKVSCKASGYTFTNYGMNWVRQAPGQGLKWMGWINTYTGEPTYADAFKGRVTMTRDTSISTAYMELSRLRSDDTAVYYCARDYGDYGMDYWGQGTTVTVSS VL: DIVMTQSPDSLAVSLGERATINCRASKSVSTSGYSFMHWYQQKPGQPPKLLIYLASNLESGVPDRFSGSGSGTDFTLTISSLQAEDVAVYYCQHSREVPWTFGQGTKVEIK",,,,,,,4,9,1,
"h1F6-35(4): 4-load auristatin ADC targeting CD70: h1F6 antibody conjugated to drug linker compound 35 (conjugate, chains of the INN, looked up, auristatin drug linker compound 35, 4-load) VH: QVQLVQSGAEVKKPGASVKVSCKASGYTFTNYGMNWVRQAPGQGLKWMGWINTYTGEPTYADAFKGRVTMTRDTSISTAYMELSRLRSDDTAVYYCARDYGDYGMDYWGQGTTVTVSS VL: DIVMTQSPDSLAVSLGERATINCRASKSVSTSGYSFMHWYQQKPGQPPKLLIYLASNLESGVPDRFSGSGSGTDFTLTISSLQAEDVAVYYCQHSREVPWTFGQGTKVEIK",,,,,,,7,23,2,
"h1F6-38(4): 4-load auristatin ADC targeting CD70: h1F6 antibody conjugated to drug linker compound 38 (conjugate, chains of the INN, looked up, auristatin drug linker compound 38, 4-load) VH: QVQLVQSGAEVKKPGASVKVSCKASGYTFTNYGMNWVRQAPGQGLKWMGWINTYTGEPTYADAFKGRVTMTRDTSISTAYMELSRLRSDDTAVYYCARDYGDYGMDYWGQGTTVTVSS VL: DIVMTQSPDSLAVSLGERATINCRASKSVSTSGYSFMHWYQQKPGQPPKLLIYLASNLESGVPDRFSGSGSGTDFTLTISSLQAEDVAVYYCQHSREVPWTFGQGTKVEIK",,,,,,,12,36,2,
"h1F6-mc-vc-MMAF(4): comparator 4-load h1F6 ADC having an mc-vc-MMAF drug linker (conjugate, chains of the INN, looked up, mc-vc-MMAF, 4-load, comparator 4-load h1F6 ADC having an mc-vc-MMAF drug linker) VH: QVQLVQSGAEVKKPGASVKVSCKASGYTFTNYGMNWVRQAPGQGLKWMGWINTYTGEPTYADAFKGRVTMTRDTSISTAYMELSRLRSDDTAVYYCARDYGDYGMDYWGQGTTVTVSS VL: DIVMTQSPDSLAVSLGERATINCRASKSVSTSGYSFMHWYQQKPGQPPKLLIYLASNLESGVPDRFSGSGSGTDFTLTISSLQAEDVAVYYCQHSREVPWTFGQGTKVEIK",,,,,,,5,8,7,
"h1F6-mc-vc-MMAE(4): comparator 4-load h1F6 ADC having an mc-vc-MMAE drug linker (conjugate, chains of the INN, looked up, mc-vc-MMAE, 4-load, comparator 4-load h1F6 ADC having an mc-vc-MMAE drug linker) VH: QVQLVQSGAEVKKPGASVKVSCKASGYTFTNYGMNWVRQAPGQGLKWMGWINTYTGEPTYADAFKGRVTMTRDTSISTAYMELSRLRSDDTAVYYCARDYGDYGMDYWGQGTTVTVSS VL: DIVMTQSPDSLAVSLGERATINCRASKSVSTSGYSFMHWYQQKPGQPPKLLIYLASNLESGVPDRFSGSGSGTDFTLTISSLQAEDVAVYYCQHSREVPWTFGQGTKVEIK",,,,,,,>1000,>1000,>1000,
